Reference: the supplement of paper PMC11451515

Key:
SEM cells [1] = experiment: cell viability relative to DMSO control; higher = less cytotoxic; details: 48 h
Summary of the method: (§1)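 In 1536-well plates, 5 μl of leukemia cells were seeded per well: 500 cells/well for NOMO1 or SEM and 1000 cells/well for P12-Ichikawa. Each line had first been adapted for at least four passages in each medium. Library compounds in DMSO were pin-dosed at 11 threefold concentrations between 47 μM and 0.79 nM, and CellTiter-Glo One luminescence was read after 48 h at 37°C. Viability is a per-plate percentage relative to DMSO wells, with cell-free wells as background.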

NOMO1 [2] = experiment: as above; details: 48 h
Summary of the method: as §1

P12-Ichikawa [3] = experiment: as above; details: HPLM + 10% dialyzed FBS, 48 h
Summary of the method: as §1

SEM cells [4] = experiment: AUC of viability dose-response curve (% viability x log10 dose units); higher = less sensitive; details: 48 h
Summary of the method: (§2)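 Library compounds in DMSO were applied for 48 h at 37°C at 11 threefold doses (47 μM to 0.79 nM) to medium-adapted leukemia cells in 1536-well plates holding 500 or 1000 cells/well. Luminescence from CellTiter-Glo One was normalised plate by plate against DMSO and cell-free wells. Area under the curve came from trapezoidal integration of a log-logistic fit, after scaling curves that rose above full viability and discarding those that failed quality control. The fit had four parameters and used log10 doses.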

NOMO1 [5] = experiment: as above; details: 48 h
Summary of the method: as §2

P12-Ichikawa [6] = experiment: as above; details: 48 h
Summary of the method: as §2

CC(C)c1cnn2c(NCc3ccccc3)cc(NCCCCCCN)nc12
cell viability [%]
Details	HPLM + 10% dialyzed FBS	RPMI 5 mM glucose + 10% FBS	RPMI 5 mM glucose + 10% dialyzed FBS
NOMO1 [2], 0.000781 µM	–	115	115
NOMO1 [2], 0.00234 µM	–	107	116
NOMO1 [2], 0.00702 µM	–	117	104
NOMO1 [2], 0.0211 µM	–	121	125
NOMO1 [2], 0.0632 µM	–	109	119
NOMO1 [2], 0.19 µM	–	122	118
NOMO1 [2], 0.569 µM	–	112	114
NOMO1 [2], 1.71 µM	–	114	107
NOMO1 [2], 5.12 µM	–	116	110
NOMO1 [2], 15.4 µM	–	106	101
NOMO1 [2], 46.1 µM	–	101	110
SEM cells [1], 0.000781 µM	121	89.8	108
SEM cells [1], 0.00234 µM	126	77.3	109
SEM cells [1], 0.00702 µM	121	105	120
SEM cells [1], 0.0211 µM	117	88.1	121
SEM cells [1], 0.0632 µM	111	82.3	98.4
SEM cells [1], 0.19 µM	111	93.9	117
SEM cells [1], 0.569 µM	119	83.5	112
SEM cells [1], 1.71 µM	120	96.9	115
SEM cells [1], 5.12 µM	118	88.2	96.4
SEM cells [1], 15.4 µM	106	76.3	114
SEM cells [1], 46.1 µM	84.9	77.4	81.8

Details	AUC of viability dose-response curve	cell viability [%]
NOMO1 [5], HPLM + 10% dialyzed FBS	464	–
NOMO1 [5], RPMI 5 mM glucose + 10% FBS	470	–
NOMO1 [5], RPMI 5 mM glucose + 10% dialyzed FBS	463	–
P12-Ichikawa [3], 0.000781 µM	–	110
P12-Ichikawa [3], 0.00234 µM	–	124
P12-Ichikawa [3], 0.00702 µM	–	131
P12-Ichikawa [3], 0.0211 µM	–	125
P12-Ichikawa [3], 0.0632 µM	–	122
P12-Ichikawa [3], 0.19 µM	–	127
P12-Ichikawa [3], 0.569 µM	–	116
P12-Ichikawa [3], 1.71 µM	–	113
P12-Ichikawa [3], 5.12 µM	–	116
P12-Ichikawa [3], 15.4 µM	–	110
P12-Ichikawa [3], 46.1 µM	–	76.8
P12-Ichikawa [6], HPLM + 10% dialyzed FBS	464	–
P12-Ichikawa [6], RPMI 5 mM glucose + 10% FBS	442	–
P12-Ichikawa [6], RPMI 5 mM glucose + 10% dialyzed FBS	439	–
SEM cells [4], HPLM + 10% dialyzed FBS	465	–
SEM cells [4], RPMI 5 mM glucose + 10% FBS	416	–
SEM cells [4], RPMI 5 mM glucose + 10% dialyzed FBS	471	–
